Results taken from ChEMBL document CHEMBL5614458, “Benign-by-Design SAHA Analogues for Human and Animal Vector-Borne Parasitic Diseases” (ACS Med Chem Lett, 2024).
pEC50, pIC50: −log10 of the molar value. One block for each molecule: values may come before it. Activity calls are given as the source filed them. The rule behind the calls is not given here.

How the values were obtained:
[1] = test system: HepG2; assay: Cytotoxicity against human HepG2 cells assessed as cell viability at 10 uM incubated for 24 hrs by MTT assay; format: toxicity, cell-based; details: hepg2, 24 h
[2] = test system: Leishmania amazonensis; assay: Antiparasitic activity against Leishmania amazonensis MHOM/BR/77/LTB0016 amastigotes infected in BALB/c mouse incubated for 48 hrs by Alamar Blue assay; format: functional, organism-based; details: MHOM/BR/77/LTB0016, 48 h
[3] = test system: Trypanosoma brucei; assay: microbe, parasite or virus in culture; format: functional, organism-based; details: Lister 427WT, 48 h
Description: Antiparasitic activity against Trypanosoma brucei Lister 427WT bloodstream trypomastigotes incubated for 48 hrs by Resazurin assay

[4] = target: T1, Histone deacetylase (Homo sapiens) (UniProt Q13547+O15379+Q9UBN7+Q92769+Q9UQL6+Q8WUI4+Q9BY41+Q96DB2+P56524+Q9UKV0+Q969S8); assay: Inhibition of HDAC in human MET5A cells transfected with Rluc-Brd/YFP-fused histone H3 by BRET assay; format: cell-based; details: dose 0.1-10 µM
[5] = test system: IMR-32; assay: Cytotoxicity against human IMR-32 cells assessed as cell viability at 10 uM incubated for 24 hrs by MTT assay; format: toxicity, cell-based; details: imr-32, 24 h
[6] = Cytotoxicity against mouse L929 cells incubated for 96 hrs by Alamar Blue assay; format: toxicity, cell-based; details: read-out: LC50
[7] = test system: Trypanosoma cruzi; assay: Antiparasitic activity against Trypanosoma cruzi Tulahuen intracellular forms infected in mouse L929 cells incubated for 96 hrs by spectrophotometery; format: functional, organism-based; details: L929, 96 h
[8] = test system: Leishmania mexicana; assay: Antiparasitic activity against Leishmania mexicana Cas9 promastigotes incubated for 48 hrs by Resazurin assay; format: functional, organism-based; details: Cas9, 48 h
[9] = target: T2, Protein deacetylase HDAC6 (Homo sapiens, UniProt Q9UBN7); assay: Inhibition of HDAC6 (unknown origin) using RHKK(Ac)AMC as substrate
T2 sequence (Q9UBN7 whole entry): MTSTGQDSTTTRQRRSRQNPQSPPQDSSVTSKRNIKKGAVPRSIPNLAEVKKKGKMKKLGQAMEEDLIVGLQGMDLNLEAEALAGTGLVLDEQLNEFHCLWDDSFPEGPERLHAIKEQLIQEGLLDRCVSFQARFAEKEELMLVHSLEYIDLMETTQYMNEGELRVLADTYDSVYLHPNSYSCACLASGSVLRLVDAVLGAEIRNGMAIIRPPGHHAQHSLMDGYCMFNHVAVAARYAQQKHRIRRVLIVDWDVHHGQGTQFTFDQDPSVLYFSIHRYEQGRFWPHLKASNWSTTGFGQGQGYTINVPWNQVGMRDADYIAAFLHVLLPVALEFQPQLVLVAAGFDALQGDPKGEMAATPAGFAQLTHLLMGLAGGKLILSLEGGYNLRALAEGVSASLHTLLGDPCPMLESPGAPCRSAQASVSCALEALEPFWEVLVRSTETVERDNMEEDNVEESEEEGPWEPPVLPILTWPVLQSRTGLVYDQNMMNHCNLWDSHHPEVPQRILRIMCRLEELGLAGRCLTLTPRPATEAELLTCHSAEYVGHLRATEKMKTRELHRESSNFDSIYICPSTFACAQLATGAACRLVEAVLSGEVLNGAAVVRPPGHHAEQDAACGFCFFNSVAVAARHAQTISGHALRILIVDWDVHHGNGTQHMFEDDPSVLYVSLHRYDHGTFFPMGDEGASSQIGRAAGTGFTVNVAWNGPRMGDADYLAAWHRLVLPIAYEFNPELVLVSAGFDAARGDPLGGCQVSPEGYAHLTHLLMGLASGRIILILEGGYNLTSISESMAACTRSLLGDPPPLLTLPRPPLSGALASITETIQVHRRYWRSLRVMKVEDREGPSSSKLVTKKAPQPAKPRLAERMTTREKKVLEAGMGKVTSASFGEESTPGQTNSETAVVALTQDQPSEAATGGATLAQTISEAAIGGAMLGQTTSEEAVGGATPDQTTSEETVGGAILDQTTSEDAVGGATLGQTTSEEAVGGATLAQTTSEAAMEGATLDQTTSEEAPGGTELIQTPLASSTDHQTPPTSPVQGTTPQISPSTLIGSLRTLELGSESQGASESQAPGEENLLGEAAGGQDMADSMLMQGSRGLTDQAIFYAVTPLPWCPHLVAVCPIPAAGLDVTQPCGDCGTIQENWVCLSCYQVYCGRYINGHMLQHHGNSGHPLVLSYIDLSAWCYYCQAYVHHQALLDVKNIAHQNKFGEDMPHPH

[10] = target: T1, Histone deacetylase (Homo sapiens); assay: Inhibition of HDAC in human MET5A cells transfected with Rluc-Brd/YFP-fused histone H3 at 0.1 to 10 uM by BRET assay; format: cell-based; details: dose 0.1-10 µM
[11] = test system: HepG2; assay: Cytotoxicity against human HepG2 cells assessed as reduction in cell viability at 10 uM incubated for 24 hrs by MTT assay relative to control; format: toxicity, cell-based; details: hepg2, 24 h

Structure (SMILES): O=C(CCCCCCCCCCCc1cccc(O)c1)NO
- Activity [1]: Non-Toxic
- pEC50 [2]: < 4.52
- pEC50 [3]: 5.29
- inhibition [4]: Dose-Dependent Effect
- Activity [5]: Non-Toxic
- CC50 at 96 h [6]: 151 µM
- pEC50 [7]: < 5.00
- pEC50 [8]: ~4.00
- pIC50 [9]: 6.00

Structure (SMILES): COc1cccc(CCCCCCCCCCCC(=O)NO)c1
- inhibition [10]: inactive
- pEC50 [2]: < 4.52
- pEC50 [3]: 6.15
- Activity [5]: Non-Toxic
- CC50 at 96 h [6]: 157 µM
- pEC50 [7]: < 5.00
- Activity [11]: 25%
- pEC50 [8]: 3.98

Structure (SMILES): C[C@@H]1[C@H](O)[C@@H](C)/C=C/C=C/C=C/C=C/C=C/C=C/C=C/[C@H](O[C@@H]2O[C@H](C)[C@@H](O)[C@H](N)[C@@H]2O)C[C@@H]2O[C@](O)(C[C@@H](O)C[C@@H](O)[C@H](O)CC[C@@H](O)C[C@@H](O)CC(=O)O[C@H]1C)C[C@H](O)[C@H]2C(=O)O [AMPHOTERICIN B]
- pEC50 [8]: 6.82

Structure (SMILES): O=C(Cn1ccnc1[N+](=O)[O-])NCc1ccccc1 [BENZNIDAZOLE]
- CC50 at 96 h [6]: > 200 µM
- pEC50 [7]: 5.58

Structure (SMILES): COc1cccc(CCCCCCCCCCCC(=O)Nc2ccccc2N)c1
- inhibition [10]: inactive
- Activity [1]: Non-Toxic
- pEC50 [3]: 4.84
- Activity [5]: Non-Toxic
- CC50 at 96 h [6]: > 200 µM
- pEC50 [7]: < 5.00
- pEC50 [8]: < 4.00

Structure (SMILES): Nc1ccccc1NC(=O)CCCCCCCCCCCc1cccc(O)c1
- inhibition [10]: inactive
- Activity [1]: Non-Toxic
- pEC50 [2]: < 4.52
- pEC50 [3]: 5.14
- Activity [5]: Non-Toxic
- CC50 at 96 h [6]: 145 µM
- pEC50 [7]: < 5.00
- pEC50 [8]: 4.24

Structure (SMILES): O=C(CCCCCCCCCCCc1cccc(OCc2ccccc2)c1)NO
- Activity [1]: Non-Toxic
- pEC50 [2]: 4.84
- pEC50 [3]: 5.32
- inhibition [4]: Dose-Dependent Effect
- Activity [5]: Non-Toxic
- CC50 at 96 h [6]: 90 µM
- pEC50 [7]: < 5.00
- pEC50 [8]: 4.16

Structure (SMILES): Nc1ccccc1NC(=O)CCCCCCCCCCCc1cccc(OC(=O)c2ccccc2)c1
- inhibition [10]: inactive
- Activity [1]: Non-Toxic
- pEC50 [2]: < 4.52
- pEC50 [3]: 5.07
- Activity [5]: Non-Toxic
- CC50 at 96 h [6]: > 200 µM
- pEC50 [7]: < 5.00
- pEC50 [8]: < 4.00

- pEC50 [3]: 7.68
Structure (SMILES): N=C(N)c1ccc(OCCCCCOc2ccc(C(=N)N)cc2)cc1 [PENTAMIDINE]
- pEC50 [8]: 5.89

Structure (SMILES): Nc1ccccc1NC(=O)CCCCCCCCCCCc1cccc(OCc2ccccc2)c1
- inhibition [10]: inactive
- Activity [1]: Non-Toxic
- pEC50 [2]: < 4.52
- pEC50 [3]: 4.11
- Activity [5]: Non-Toxic
- CC50 at 96 h [6]: > 200 µM
- pEC50 [7]: < 5.00
- pEC50 [8]: < 4.00

Structure (SMILES): O=C(CCCCCCCCCCCc1cccc(OC(=O)c2ccccc2)c1)NO
- inhibition [10]: inactive
- Activity [1]: Non-Toxic
- pEC50 [2]: < 4.52
- pEC50 [3]: 5.32
- Activity [5]: Non-Toxic
- CC50 at 96 h [6]: 79 µM
- pEC50 [7]: < 5.00
- pEC50 [8]: 4.27

Structure (SMILES): CCCCCCCCCCCCCCCCOP(=O)([O-])OCC[N+](C)(C)C [MILTEFOSINE]
- pEC50 [2]: 5.86
